# Measured values published in PMC10969092, “Characterization of Lysophospholipase D Activity in Mammalian Cell Membranes” (Cells, 2024).
# Like-named read-outs stand apart in the source and are kept apart here.
# Experiments:
# lyso-PLD [1] = test: In vitro membrane lyso-PLD assay (B-lyso-PC substrate, B-LPA product); type: biochemical, rat
# lyso-PLD [2] = type: biochemical, human; details: PC-3 membranes; for EC50: single-site competition fit, read-out: EC50 for inhibiting B-lyso-PC conversion to B-LPA; for Ability to compete with B-lyso-PC for utilization by lyso-PLD: up to 4.6 mM
# PLD [3] = target: T1, PLD (Rattus norvegicus, UniProt P70498); test: In vitro fluorescent PLD assay in cell membranes (B-PC substrate with butanol, B-PBt product); type: biochemical
# T1 construct: PC12K membranes were incubated with either B-PC (for PLD assay) or commercial B-lyso-PC (for lyso-PLD assay); endogenous in cells; host or cells: PC12K and A7r5 cell membranes (100,000 x g pellet)
# PLD [4] = test: PLD activity in intact cells; type: cell-based; details: multiple cell types, varying experimental conditions
# PLD [5] = test system: PLD; parameters: method as in PMID 9655185; details: cited from earlier work
# PLC from Bacillus cereus = details: cited from earlier work
# cabbage PLD = details: cited from earlier work
# T1 sequence (P70498 whole entry): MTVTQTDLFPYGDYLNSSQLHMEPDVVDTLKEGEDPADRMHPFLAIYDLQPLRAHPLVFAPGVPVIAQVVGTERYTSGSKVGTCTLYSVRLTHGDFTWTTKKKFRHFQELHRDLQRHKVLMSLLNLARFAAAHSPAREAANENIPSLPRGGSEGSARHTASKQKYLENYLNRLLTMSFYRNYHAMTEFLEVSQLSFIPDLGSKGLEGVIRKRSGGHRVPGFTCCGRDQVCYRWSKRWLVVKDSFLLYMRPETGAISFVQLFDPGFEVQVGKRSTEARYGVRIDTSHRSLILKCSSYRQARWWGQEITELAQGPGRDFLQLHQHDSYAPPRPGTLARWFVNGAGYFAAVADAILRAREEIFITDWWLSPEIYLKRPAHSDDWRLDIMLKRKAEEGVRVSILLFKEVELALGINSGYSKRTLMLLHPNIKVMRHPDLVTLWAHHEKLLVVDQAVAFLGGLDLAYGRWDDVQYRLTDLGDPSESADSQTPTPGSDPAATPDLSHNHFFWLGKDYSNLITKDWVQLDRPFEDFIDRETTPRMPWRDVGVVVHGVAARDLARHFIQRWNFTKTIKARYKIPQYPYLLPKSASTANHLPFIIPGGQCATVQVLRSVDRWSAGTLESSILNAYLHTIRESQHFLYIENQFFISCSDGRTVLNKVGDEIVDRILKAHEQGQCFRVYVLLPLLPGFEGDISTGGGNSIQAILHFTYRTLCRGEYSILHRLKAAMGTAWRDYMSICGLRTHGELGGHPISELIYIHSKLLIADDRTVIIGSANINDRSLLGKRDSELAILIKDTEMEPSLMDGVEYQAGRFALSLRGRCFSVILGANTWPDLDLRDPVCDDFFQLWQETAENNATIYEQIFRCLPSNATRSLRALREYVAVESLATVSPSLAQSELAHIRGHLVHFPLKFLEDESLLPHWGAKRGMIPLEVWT
compound,measurement,setting,value
Nc1ncnc2c1ncn2[C@@H]1O[C@H](COP(=O)(O)OP(=O)(O)OP(=O)(O)O)[C@@H](O)[C@H]1O [ATP],Stimulation of lyso-PLD activity,lyso-PLD [1],did not stimulate lyso-PLD activity
CCCCCCCCCCCCCCCCOC[C@@H](O)COP(=O)([O-])OCC[N+](C)(C)C [C16-lyso-PAF],EC50,lyso-PLD [2],~400 µM
CCCCCCCCCCCCCCCC(=O)OC[C@@H](O)COP(=O)([O-])OCC[N+](C)(C)C [C16-lyso-PC],EC50,lyso-PLD [2],~300 µM
CCCCCCCCCCCCCCCCCCOC[C@@H](O)COP(=O)([O-])OCC[N+](C)(C)C [C18-lyso-PAF],EC50,lyso-PLD [2],~400 µM
CCCCCCCCCCCCCCCCCC(=O)OC[C@@H](O)COP(=O)([O-])OCC[N+](C)(C)C [C18-lyso-PC],EC50,lyso-PLD [2],~300 µM
CCCCCCCC/C=C\CCCCCCCC(=O)OC[C@@H](O)COP(=O)([O-])OCC[N+](C)(C)C [C18:1-lyso-PC],EC50,lyso-PLD [2],~300 µM
O=S(=O)([O-])[O-].[Cu+2] [copper sulfate],Inhibition of PLD in screening assays,PLD [3],did not inhibit PLD
C[S+](C)[O-] [dimethylsulfoxide],Effect on PLD activity,"PLD [3]; 8%, cell line not stated",completely inhibited
same,Effect on lyso-PLD activity,"lyso-PLD [1]; 8%, cell line not stated",relatively insensitive
[Cl-].[Cl-].[Mg+2] [magnesium chloride],Inhibition of PLD in screening assays,PLD [3],did not inhibit PLD
same,Stimulation of lyso-PLD activity,lyso-PLD [1],did not stimulate lyso-PLD activity
O=S(=O)([O-])[O-].[Mg+2] [magnesium sulfate],Inhibition of PLD in screening assays,PLD [3],did not inhibit PLD
O=[N+]([O-])c1ccc(OP(=O)(O)O)cc1 [para-nitrophenol phosphate],Inhibition of PLD in screening assays,PLD [3],did not inhibit PLD
O=C([O-])C(=O)[O-].[K+].[K+] [potassium oxalate],Inhibition of PLD in screening assays,PLD [3]; concentrations of 1–10 mM,did not inhibit PLD
[Na+].[Na+].[O]=[Mo](=[O])([O-])[O-] [sodium molybdate],Inhibition of PLD in screening assays,PLD [3]; concentrations of 1–10 mM,did not inhibit PLD
O=C([O-])C(=O)[O-].[Na+].[Na+] [sodium oxalate],Inhibition of PLD in screening assays,PLD [3]; concentrations of 1–10 mM,did not inhibit PLD
O=S(=O)([O-])[O-].[Zn+2] [zinc sulfate],Inhibition of PLD in screening assays,PLD [3],did not inhibit PLD
O=P(O)(O)OC(CO)CO [β-glycerophosphate],Inhibition of PLD in screening assays,PLD [3],did not inhibit PLD
Lyso-phosphatidylserine,Ability to compete with B-lyso-PC for utilization by lyso-PLD,lyso-PLD [2],poor competitor
lyso-phosphatidylethanol,Ability to compete with B-lyso-PC for utilization by lyso-PLD,lyso-PLD [2],least effective
pervanadate,Inhibition of PLD in intact cells,PLD [4],"failed to show that vanadate, pervanadate, or iodate inhibits PLD"
same,Effect on PLD in intact endothelial cells,PLD [5],activate PLD
sodium orthovanadate,B-PBt levels in kinetic study,"PLD [3]; 1 mM added after 10 min, PC12K membranes, B-PC substrate",B-PBt levels declined
same,Effect on PLD activity (production of B-PBt),"PLD [3]; 1 mM, A7r5 membranes, B-PC substrate",profound inhibition of PLD activity
same,Effect on lyso-PLD activity (B-LPA from B-lyso-PC),lyso-PLD [1],did not inhibit
same,Production of LPA in kinetic study,lyso-PLD [1],not significantly affected
same,Inhibition of PLD in intact cells,PLD [4],"failed to show that vanadate, pervanadate, or iodate inhibits PLD"
same,B-lyso-PBt production in kinetic study,PLA2,continued but at a reduced rate
same,Effect on PLA2 activity (generation of B-lyso-PC and B-lyso-PBt from B-PC),PLA2,did not inhibit
same,lyso-PC accumulation in kinetic study,PLA2,did not affect lyso-PC accumulation
same,Inhibition of PLC from Bacillus cereus,PLC from Bacillus cereus,inhibit a PLC from Bacillus cereus
same,Direct inhibition of cabbage PLD,cabbage PLD,directly inhibit cabbage PLD
sodium tungstate,Inhibition of PLD in screening assays,PLD [3]; concentrations of 1–10 mM,did not inhibit PLD
